From ChEMBL document CHEMBL5728299, “Compounds and compositions for inhibiting the activity of SHP2” (2021) come the findings set out here.

Each structure is given as a SMILES string.

This experiment can be described thus: After 30-60 minutes incubation at 25° C., the surrogate substrate DiFMUP (Invitrogen, cat #D6567) was added to the reaction and incubated at 25° C. for 30 minutes. The reaction was then quenched by the addition of 5 μl of a 160 μM solution of bpV(Phen) (Enzo Life Sciences cat #ALX-270-204). The fluorescence signal was monitored using a microplate reader (Envision, Perki-Elmer) using excitation and emission wavelengths of 340 nm and 450 nm, respectively. The inhibitor dose response curves were analyzed using normalized IC50 regression curve fitting with control based normalization.

For `CC1(CN)CCN(c2nnc(Sc3cccc(NC(=O)c4cnc5ccccn5c4=O)c3Cl)c(N)n2)CC1`, the IC50 (as a rule, the point on the concentration scale where inhibition reaches its midpoint) was found to be 173 nM.
